pIC50: −log10 of the molar value.
Legend:
[1] = target: Human recombinant Acetyl-CoA Carboxylase 2 (ACC2) (Homo sapiens, UniProt O00763); experiment: Assay X: ACC2 inhibition, inorganic phosphate (malachite green); type: biochemical; conditions: Assay X: 37° C., 1.5 h, 5 min pre-incubation
Outline: (§1)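 Human recombinant enzyme pre-incubated 5 min with compound before substrate addition; reaction run 1.5 h, then inorganic phosphate detected by malachite green absorbance at 660 nm. Ten concentrations tested in triplicate; apparent IC50 from four-parameter curve fit.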

[2] = target: Human recombinant Acetyl-CoA Carboxylase 1 (ACC1) (Homo sapiens, UniProt Q13085); experiment: Assay X: ACC1 inhibition, inorganic phosphate (malachite green); type: biochemical; conditions: Assay X: 37° C., 1.5 h, 5 min pre-incubation
Outline: as §1

Human recombinant Acetyl-CoA Carboxylase 2 (ACC2), sequence (O00763 whole entry): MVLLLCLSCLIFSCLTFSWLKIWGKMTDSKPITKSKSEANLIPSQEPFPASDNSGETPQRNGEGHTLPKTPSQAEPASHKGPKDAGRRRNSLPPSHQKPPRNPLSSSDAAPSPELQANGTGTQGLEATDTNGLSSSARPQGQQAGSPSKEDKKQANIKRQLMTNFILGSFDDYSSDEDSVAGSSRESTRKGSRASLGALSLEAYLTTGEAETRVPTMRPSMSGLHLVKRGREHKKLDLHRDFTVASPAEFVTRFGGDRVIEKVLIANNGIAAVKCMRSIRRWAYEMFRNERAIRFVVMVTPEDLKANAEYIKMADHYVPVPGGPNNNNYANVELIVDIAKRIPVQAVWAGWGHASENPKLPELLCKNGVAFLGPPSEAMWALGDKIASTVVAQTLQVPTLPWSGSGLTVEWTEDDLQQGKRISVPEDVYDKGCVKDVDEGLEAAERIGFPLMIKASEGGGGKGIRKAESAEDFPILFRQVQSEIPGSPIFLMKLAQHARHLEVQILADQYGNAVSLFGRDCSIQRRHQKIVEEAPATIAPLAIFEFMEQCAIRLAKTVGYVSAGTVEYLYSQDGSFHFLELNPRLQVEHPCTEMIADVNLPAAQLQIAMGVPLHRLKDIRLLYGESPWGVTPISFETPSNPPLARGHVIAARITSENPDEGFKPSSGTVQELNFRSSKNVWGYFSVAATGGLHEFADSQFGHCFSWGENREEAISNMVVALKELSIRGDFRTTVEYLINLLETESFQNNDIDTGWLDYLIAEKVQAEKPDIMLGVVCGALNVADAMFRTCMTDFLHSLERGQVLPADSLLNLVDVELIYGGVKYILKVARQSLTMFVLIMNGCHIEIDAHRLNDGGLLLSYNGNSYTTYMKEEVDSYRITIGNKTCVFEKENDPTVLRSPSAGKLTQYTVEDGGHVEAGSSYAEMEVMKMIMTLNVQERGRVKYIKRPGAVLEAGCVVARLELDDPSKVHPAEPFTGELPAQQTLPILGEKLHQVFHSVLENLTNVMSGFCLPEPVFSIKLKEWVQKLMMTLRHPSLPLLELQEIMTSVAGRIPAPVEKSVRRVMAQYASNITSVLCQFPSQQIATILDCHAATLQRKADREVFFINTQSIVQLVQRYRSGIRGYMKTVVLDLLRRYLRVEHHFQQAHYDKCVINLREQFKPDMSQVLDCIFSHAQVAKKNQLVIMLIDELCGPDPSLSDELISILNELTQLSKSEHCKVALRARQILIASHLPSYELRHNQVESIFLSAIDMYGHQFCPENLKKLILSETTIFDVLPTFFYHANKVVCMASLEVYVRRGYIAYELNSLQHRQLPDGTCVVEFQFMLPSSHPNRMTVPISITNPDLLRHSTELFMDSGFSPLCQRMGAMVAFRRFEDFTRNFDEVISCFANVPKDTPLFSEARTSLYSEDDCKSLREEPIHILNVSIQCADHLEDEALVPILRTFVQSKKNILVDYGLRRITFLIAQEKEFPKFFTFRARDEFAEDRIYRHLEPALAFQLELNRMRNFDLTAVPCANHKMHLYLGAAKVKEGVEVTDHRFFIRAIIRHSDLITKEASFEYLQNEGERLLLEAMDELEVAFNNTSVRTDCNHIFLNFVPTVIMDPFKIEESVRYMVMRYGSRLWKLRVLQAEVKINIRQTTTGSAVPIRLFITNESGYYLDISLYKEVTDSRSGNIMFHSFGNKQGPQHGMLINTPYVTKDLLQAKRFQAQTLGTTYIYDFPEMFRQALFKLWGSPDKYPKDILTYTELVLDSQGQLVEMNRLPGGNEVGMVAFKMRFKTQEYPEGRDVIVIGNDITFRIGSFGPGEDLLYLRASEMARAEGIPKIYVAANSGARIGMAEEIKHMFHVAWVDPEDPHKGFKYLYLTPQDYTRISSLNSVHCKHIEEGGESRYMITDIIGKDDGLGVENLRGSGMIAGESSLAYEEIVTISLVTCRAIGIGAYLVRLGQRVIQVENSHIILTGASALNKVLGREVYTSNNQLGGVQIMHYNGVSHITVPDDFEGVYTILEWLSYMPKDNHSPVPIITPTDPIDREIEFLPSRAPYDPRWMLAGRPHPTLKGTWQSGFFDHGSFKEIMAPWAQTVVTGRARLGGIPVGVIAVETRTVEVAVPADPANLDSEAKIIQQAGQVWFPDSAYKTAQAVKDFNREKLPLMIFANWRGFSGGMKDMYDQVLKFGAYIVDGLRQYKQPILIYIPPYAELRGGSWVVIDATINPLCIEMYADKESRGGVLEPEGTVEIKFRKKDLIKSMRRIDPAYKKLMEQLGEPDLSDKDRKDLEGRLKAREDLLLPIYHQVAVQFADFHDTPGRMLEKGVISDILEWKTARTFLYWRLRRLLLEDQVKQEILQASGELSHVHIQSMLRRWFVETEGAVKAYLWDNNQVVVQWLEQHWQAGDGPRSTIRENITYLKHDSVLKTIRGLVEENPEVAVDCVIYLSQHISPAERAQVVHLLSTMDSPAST

pIC50 [1] | pIC50 [2] | Structure (SMILES)
6.47 | 6.00 | CC(C)(C)OC(=O)NC[C@H]1CC[C@H](CNC(=O)c2cc(-c3ccc(OCCO)nc3)nc3ccccc23)CC1 [Example 174, tert-Butyl[(trans-4-{[({2-[6-(2-hydroxyethoxy)-pyridin-3-yl]-quinolin-4-yl}-carbonyl)amino]-methyl}cyclohexyl)methyl]carbamate]
6.30 | 5.14 | CC(C)(C)OC(=O)NC[C@H]1CC[C@H](CNC(=O)c2cc(-c3ccc(OC4CCOCC4)nc3)nc3ccccc23)CC1 [Example 175, tert-Butyl[(trans-4-{[({2-[6-(tetrahydro-2H-pyran-4-yloxy)-pyridin-3-yl]-quinolin-4-yl}-carbonyl)amino]-methyl}cyclohexyl)methyl]carbamate]
6.09 | 5.31 | CN(C)CCOc1ccc(-c2cc(C(=O)NC[C@H]3CC[C@H](CNC(=O)OC4CCOCC4)CC3)c3ccccc3n2)cn1 [Example 195, Tetrahydro-2H-pyran-4-yl {[trans-4-({[(2-{6-[2-(dimethylamino)ethoxy]pyridin-3-yl}quinolin-4-yl)carbonyl]amino}methyl)cyclohexyl]methyl}carbamate]
6.04 | 5.46 | CN(C)CCOc1ccc(-c2cc(C(=O)NC[C@H]3CC[C@H](CNC(=O)O[C@H]4CCOC4)CC3)c3ccccc3n2)cn1 [Example 196, (3S)-Tetrahydrofuran-3-yl {[trans-4-({[(2-{6-[2-(dimethylamino)ethoxy]pyridin-3-yl}quinolin-4-yl)carbonyl]amino}methyl)cyclohexyl]methyl}carbamate]
5.70 | 5.02 | O=C(NC[C@H]1CC[C@H](CNC(=O)c2cc(-c3ccc(NCCO)nc3)nc3ccccc23)CC1)OC1CCOCC1 [Example 197, Tetrahydro-2H-pyran-4-yl {[trans-4-({[(2-{6-[(2-hydroxyethyl)amino]pyridin-3-yl}quinolin-4-yl)carbonyl]amino}methyl)cyclohexyl]methyl}carbamate]
6.42 | 5.85 | CN(C)CCNc1ccc(-c2cc(C(=O)NC[C@H]3CC[C@H](CNC(=O)OC4CCOCC4)CC3)c3ccccc3n2)cn1 [Example 198, Tetrahydro-2H-pyran-4-yl({trans-4-[({[2-(6-{[2-(dimethylamino)-ethyl]amino}pyridin-3-yl)quinolin-4-yl]carbonyl}amino)-methyl]cyclohexyl}-methyl)carbamate]
6.43 | 5.80 | CN(C)CCNc1ccc(-c2cc(C(=O)NC[C@H]3CC[C@H](CNC(=O)O[C@H]4CCOC4)CC3)c3ccccc3n2)cn1 [Example 199, (3S)-Tetrahydrofuran-3-yl({trans-4-[({[2-(6-{[2-(dimethylamino)ethyl]-amino}pyridin-3-yl)quinolin-4-yl]carbonyl}amino)-methyl]cyclohexyl}-methyl)carbamate]
5.92 | 5.35 | O=C(NC[C@H]1CC[C@H](CNC(=O)c2cc(-c3ccc(NCCO)nc3)nc3ccccc23)CC1)O[C@H]1CCOC1 [Example 200, (3S)-Tetrahydrofuran-3-yl{[trans-4-({[(2-{6-[(2-hydroxyethyl)amino]pyridin-3-yl}quinolin-4-yl)carbonyl]amino}methyl)cyclohexyl]methyl}-carbamate]
6.29 | 5.96 | O=C(NC[C@H]1CC[C@H](CNC(=O)c2cc(-c3ccc(N4CC[C@@H](O)C4)nc3)nc3ccccc23)CC1)OC1CCOCC1 [Example 202, Tetrahydro-2H-pyran-4-yl {[trans-4-({[(2-{6-[(3R)-3-hydroxypyrrolidin-1-yl]pyridin-3-yl}quinolin-4-yl)carbonyl]amino}methyl)cyclohexyl]methyl}-carbamate]

Further lines, the molecule ahead of its results:

Structure (SMILES) | pIC50 [1] | pIC50 [2]
CC(C)(C)OC(=O)NC[C@H]1CC[C@H](CNC(=O)c2cc(-c3ccc(OCN4CCCC4=O)nc3)nc3ccccc23)CC1 [Example 177, tert-Butyl{[trans-4-({[(2-{6-[(2-oxopyrrolidin-1-yl)methoxy]pyridin-3-yl}quinolin-4-yl)carbonyl]amino}-methyl)cyclohexyl]-methyl}carbamate] | 5.77 | 5.37
CC(C)(C)OC(=O)NC[C@H]1CC[C@H](CNC(=O)c2cc(-c3ccc(OCC(N)=O)nc3)nc3ccccc23)CC1 [Example 178, tert-Butyl[(trans-4-{[({2-[6-(2-amino-2-oxoethoxy)pyridin-3-yl]quinolin-4-yl}carbonyl)amino]-methyl}cyclohexyl)methyl]carbamate] | 6.48 | 5.81
CN1CCN(CCOc2ccc(-c3cc(C(=O)NC[C@H]4CC[C@H](CNC(=O)OC(C)(C)C)CC4)c4ccccc4n3)cn2)CC1 [Example 179, tert-Butyl{[trans-4-({[(2-{6-[2-(4-methylpiperazin-1-yl)ethoxy]pyridin-3-yl}quinolin-4-yl)carbonyl]amino}-methyl)cyclohexyl]-methyl}carbamate] | 6.26 | 5.74
CC(C)(C)OC(=O)NC[C@H]1CC[C@H](CNC(=O)c2cc(N3CCNCC3)nc3ccccc23)CC1 [Example 190, tert-Butyl {[trans-4-({[(2-piperazin-1-ylquinolin-4-yl)carbonyl]amino}methyl)-cyclohexyl]methyl}carbamate] | 5.89 | 4.87
CC(=O)NCC1CCN(c2cc(C(=O)NC[C@H]3CC[C@H](CNC(=O)OC(C)(C)C)CC3)c3ccccc3n2)CC1 [Example 191, tert-Butyl [(trans-4-{[({2-[4-(acetamidomethyl)piperidin-1-yl]quinolin-4-yl}carbonyl)amino]methyl}cyclohexyl)methyl]carbamate] | 6.01 | 5.53
CC(=O)NCCC1CCN(c2cc(C(=O)NC[C@H]3CC[C@H](CNC(=O)OC(C)(C)C)CC3)c3ccccc3n2)CC1 [Example 192, tert-Butyl [(trans-4-{[({2-[4-(2-acetamidoethyl)piperidin-1-yl]quinolin-4-yl}carbonyl)amino]methyl}cyclohexyl)methyl]carbamate] | 6.25 | 5.71
CN(C)CCC1CCN(c2cc(C(=O)NC[C@H]3CC[C@H](CNC(=O)OC(C)(C)C)CC3)c3ccccc3n2)CC1 [Example 193, tert-butyl {[trans-4-({[(2-{4-[2-(dimethylamino)ethyl]piperidin-1-yl}quinolin-4-yl)carbonyl]amino}methyl)cyclohexyl]methyl}carbamate] | 7.00 | 6.36
CC(C)(C)OC(=O)NC[C@H]1CC[C@H](CNC(=O)c2cc(N3CCC(CCN)CC3)nc3ccccc23)CC1 [Example 194, tert-Butyl [(trans-4-{[({2-[4-(2-aminoethyl)piperidin-1-yl]quinolin-4-yl}carbonyl)amino]methyl}cyclohexyl)methyl]carbamate] | 7.30 | 6.29
O=C(NC[C@H]1CC[C@H](CNC(=O)c2cc(-c3ccc(N4CC[C@@H](O)C4)nc3)nc3ccccc23)CC1)O[C@H]1CCOC1 [Example 201, (3S)-Tetrahydrofuran-3-yl {[trans-4-({[(2-{6-[(3R)-3-hydroxypyrrolidin-1-yl]pyridin-3-yl}quinolin-4-yl)carbonyl]amino}methyl)cyclohexyl]methyl}-carbamate] | 6.07 | 5.66
CN(C)CCOc1ccc(-c2cc(C(=O)NC[C@H]3CC[C@H](CNC(=O)OC(C)(C)C)CC3)c3ccccc3n2)cc1 [Example 203, tert-Butyl {[trans-4-({[(2-{4-[2-(dimethylamino)ethoxy]phenyl}quinolin-4-yl)carbonyl]amino}methyl)cyclohexyl]methyl}carbamate] | 6.82 | 6.20
CN(C)CC(O)CC1CCN(c2cc(C(=O)NC[C@H]3CC[C@H](CNC(=O)OC(C)(C)C)CC3)c3ccccc3n2)CC1 (stereo partly drawn) [Example 205, tert-Butyl {[trans-4-({[(2-{4-[3-(dimethylamino)-2-hydroxypropyl]piperidin-1-yl}quinolin-4-yl)carbonyl]amino}methyl)cyclohexyl]methyl}carbamate] | 6.85 | 5.88
CN(C)C(=O)COC1CCN(c2cc(C(=O)NC[C@H]3CC[C@H](CNC(=O)OC(C)(C)C)CC3)c3ccccc3n2)CC1 [Example 210, tert-Butyl {[trans-4-({[(2-{4-[2-(dimethylamino)-2-oxoethoxy]piperidin-1-yl}quinolin-4-yl)carbonyl]amino}methyl)cyclohexyl]methyl}carbamate] | 5.69 | 4.88
CN(C)CCOC1CCN(c2cc(C(=O)NC[C@H]3CC[C@H](CNC(=O)OC(C)(C)C)CC3)c3ccccc3n2)CC1 [Example 211, tert-Butyl {[trans-4-({[(2-{4-[2-(dimethylamino)ethoxy]piperidin-1-yl}quinolin-4-yl)carbonyl]amino}methyl)cyclohexyl]methyl}carbamate] | 6.57 | 5.65
CN(C)CCC1CCN(c2cc(C(=O)NC[C@H]3CC[C@H](CNC(=O)OCC(C)(C)C)CC3)c3ccccc3n2)CC1 [Example 212, 2,2-Dimethylpropyl {[trans-4-({[(2-{4-[2-(dimethylamino)ethyl]piperidin-1-yl}quinolin-4-yl)carbonyl]amino}methyl)cyclohexyl]methyl}carbamate] | 6.92 | 5.92
CC(C)(C)OC(=O)NC[C@H]1CC[C@H](CNC(=O)c2cc(N3CCC(CN4CCOCC4)CC3)nc3ccccc23)CC1 [Example 213, tert-Butyl[(trans-4-{[({2-[4-(morpholin-4-ylmethyl)piperidin-1-yl]quinolin-4-yl}carbonyl)amino]methyl}cyclohexyl)methyl]-carbamate] | 6.21 | 5.48
CN1CCN(C2CCN(c3cc(C(=O)NC[C@H]4CC[C@H](CNC(=O)OC(C)(C)C)CC4)c4ccccc4n3)CC2)CC1 [Example 214, tert-Butyl[(trans-4-{[({2-[4-(4-methylpiperazin-1-yl)piperidin-1-yl]-quinolin-4-yl}carbonyl)amino]methyl}cyclohexyl)methyl]-carbamate] | 5.65 | 5.48
